Series [1] has as its target benzodiazepine binding site on GABAA receptors. Kind of series: In vitro inhibition of 3H-flunitrazepam (3H-FNM) binding. Particulars: cerebral cortex membranes from male Wistar rats; 3H-FNM 1 nM; 40 min at 2° C. Details: species or system rat. The protocol: In Vitro Inhibition of […] (3H-FNM) Binding
The GABA recognition site and the benzodiazepine modulatory unit can selectively be labelled with ^3H-flunitrazepam.
Preparations are performed at 0-4° C. unless otherwise indicated. Cerebral cortex from male Wistar rats (150-200 g) is homogenised for 5-10 sec in 20 ml Tris-HCl (30 mM, pH 7.4) using an Ultra-Turrax homogeniser. The suspension is centrifuged at 27,000×g for 15 min and the pellet is washed three times with buffer (centrifuged at 27,000×g for 10 min). The washed pellet is homogenized in 20 ml of buffer and incubated on a water bath (37° C.) for 30 min to remove endogenous GABA and then centrifuged for 10 min at 27,000×g. The pellet is then homogenized in buffer and centrifuged for 10 min at 27,000×g. The final pellet is resuspended in 30 ml buffer and the preparation is frozen and stored at −20° C.
The membrane preparation is thawed and centrifuged at 2° C. for 10 min at 27,000×g. The pellet is washed twice with 20 ml 50 mM Tris-citrate, pH 7.1 using an Ultra-Turrax homogeniser and centrifuged for 10 min at 27,000×g. The final pellet is resuspended in 50 mM Tris-citrate, pH 7.1 (500 ml buffer per g of original tissue), and then used for binding assays. Aliquots of 0.5 ml tissue are added to 25 μl of test solution and 25 μl of ^3H-FNM (1 nM, final concentration), mixed and incubated for 40 min at 2° C. Non-specific binding is determined using Clonazepam (1 μM, final concentration). After incubation the samples are added 5 ml of ice-cold buffer and poured directly onto Whatman GF/C glass fibre filters under suction and immediately washed with 5 ml ice-cold buffer. The amount of radioactivity on the filters is determined by conventional liquid scintillation counting. Specific binding is total binding minus non-specific binding.
25-75% inhibition of specific binding must be obtained, before calculation of an IC50.
The test value will be given as IC50 (the concentration (μM) of the test substance which inhibits the specific binding of ^3H-FNM by 50%).
Co is specific binding in control assays, and […]

These results are taken from patent publication US8030339B2, “Imidazole derivatives for the treatment of anxiety and related diseases” (Neurosearch A/S, priority 2005, dated 2011).

Take `O=C(c1cn(-c2cccc(-c3ccccc3)c2)cn1)n1cccn1` [Compound 178, (1-Biphenyl-3-yl-1H-imidazol-4-yl)-pyrazol-1-yl-methanone]: the melting point (as a rule, the temperature, or range, at which the solid turns liquid) lay in the range of 124 to 127 °C. The IC50 (as a rule, the point on the concentration scale where inhibition reaches its midpoint) in series [1] stood at 5.9 nM.

In series [1], `COc1ccc(F)cc1-c1cccc(-n2cnc(C(=O)c3ccccn3)c2)c1` [Compound 14, [1-(5′-Fluoro-2′-methoxy-biphenyl-3-yl)-1H-imidazol-4-yl]-pyridin-2-yl-methanone] registered an IC50 of 2.7 nM.

`O=C(c1ccccc1)c1cn(-c2cccc(-c3ccccc3)c2)cn1` [Compound 8, (1-Biphenyl-3-yl-1H-imidazol-4-yl)-phenyl-methanone] registered an IC50 in series [1] of 36 nM.
